# Biological target: CDK2/Cyclin E
# Assay: Inhibition of CDK2/Cyclin E (unknown origin) using histone as substrate incubated for 30 mins in presence of gamma[33P]ATP by digital imaging analysis
row,SMILES,IC50
1,COc1cccc(CNc2nc(NC3CCCCC3N)nc3c2ncn3C(C)C)c1O (stereo not drawn),20 nM
2,CC(C)n1cnc2c(NCc3cc(Cl)ccc3O)nc(NCCC(C)(C)O)nc21,20 nM
3,CCC(CO)Nc1nc(NCc2cc(C)ccc2O)c2ncn(C(C)C)c2n1 (stereo not drawn),20 nM

# Reference: BindingDB's records for PubMed 26907156 (n/a, 2016)
